Reference: PubChem BioAssay AID2305 (GlaxoSmithKline (GSK), 2010)
pIC50: −log10 of the molar value.

system: P. falciparum 3D7 growth, pLDH absorbance; experiment: blood-stage malaria parasite growth potency – strain 3D7, dose response (AID 2305)

Compound	pIC50
CO/C(=C\C=C\c1cc2cc(Cl)c(Cl)cc2[nH]1)C(=O)NC1C[C@H]2CC[C@@H](C1)N2C (some centres not stated)	5.99
O=C(Nc1cccc(C(F)(F)F)c1)NC1CCN(c2ccnc3cc(Cl)ccc23)C1 (configuration not stated)	6.92
CNCc1cccc2[nH]c(-c3csc(Cc4cc(Cl)ccc4OCC(C)C)n3)nc12	6.14
O=C(CCc1cccnc1)Nc1cccc(-c2ccc(-c3nc4ccc(C(F)(F)F)cc4[nH]3)cc2)c1	6.06
CCCc1cc(C(=O)N[C@@H](Cc2ccccc2)[C@H](O)CNC(C)C)c(F)c(N2CCCC2=O)c1	6.03
CCOCc1cn(CC(=O)c2ccc(-c3ccccc3)cc2)c(C)nc1=N	6.49
CCc1cc2c(=O)c(-c3nc(C)cs3)c([C@H](N)Cc3ccc(O)cc3)oc2cc1O	6.05
CC(C)CCN1CCCN(Cc2ccc(C(=O)Nc3ccc(F)c(F)c3)cc2)CC1	6.03
O=C(Nc1cccc(F)c1)N1CCC(NS(=O)(=O)c2ccc(Br)cc2)CC1	6.01
COc1ccc2c(c1)CC(CNC[C@H](O)c1cccc(Cl)c1)CC2 (some centres not stated)	6.00
COC(=O)c1sc(-c2ccc(Cl)cc2)cc1N(CCCN1CCC(N2CCCCC2)CC1)S(=O)(=O)c1ccc(C)cc1	6.13
CN(C(=O)c1cc2c(-c3cncnc3)cccc2[nH]1)c1ccccc1	6.20
CS(=O)(=O)N(c1ccccc1)c1cc(C(=O)N[C@@H](Cc2ccccc2)[C@H](O)CNC2CC2)cc(N2CCCC2=O)c1	6.52
CNCCN(C)C(=O)Oc1c(Cl)c(C)nc(C)c1-c1ccc(Oc2ccc(OC(F)(F)F)cc2)cc1	6.89
N#Cc1ccc2c(c1)CCN(CCC1CCC(NC(=O)/C=C/c3cnc4ccccc4c3)CC1)CC2 (configuration not stated)	5.92
Cc1ccc2c(c1)C1(CC(=O)N(CCc3scnc3C)C1=O)C(=O)N2Cc1ccccc1 (configuration not stated)	5.90
N=C(N)c1ccc2[nH]c(-c3cc4cc(C(=N)N)ccc4o3)cc2c1	6.74
COc1ccc(Cc2c(C)nc3nc(N)nc(N)c3c2C)cc1	6.55
Cc1cc(N(CCCN(C)C)Cc2cc(F)cc(F)c2)nc(Nc2ccc(Cl)cc2)n1	6.27
Cc1cccc2[nH]c(-c3ccc(-c4ccc(CN5CCCCC5CO)cc4)cc3)nc12 (configuration not stated)	6.09
CCC[C@@H]([C@@H](Cc1ccc(C)s1)C(=O)N[C@@H](CNC(C)=O)C(=O)Nc1nccs1)N(O)C=O	6.74
COc1ccc2nccc(NC(=O)N3CCC(NCc4cc5c(F)ccc(F)c5[nH]4)CC3)c2n1	6.66
Cc1[nH]c(C)c(-c2ccc(-c3ccc(F)cc3)cc2)c(=O)c1Br	5.97

Compound	pIC50
COC(=O)c1cccc(CNCc2cccc(-c3ccc(-c4nc5c(C)cccc5[nH]4)s3)c2)c1	6.68
CC(Cc1ccc(NC(=O)CCNCc2ccccc2)cc1)NCCc1cccc(Cl)c1 (configuration not stated)	6.82
COc1ccccc1NC(=O)Nc1cccc(-c2ccc(-c3nc4c(C)cccc4[nH]3)s2)c1	6.24
Cc1nc(-c2ccc(-c3ccc(NC(=O)c4coc5ccc(N6C[C@@H](C)N(C)[C@@H](C)C6)cc45)cc3)c(C)c2)no1	6.11
CCCN1CCN(c2ccc(NS(=O)(=O)c3ccc(C(=O)Nc4ccc(Cl)cc4)cc3)cc2)CC1	5.95
CN1CCCN(Cc2cccc(-c3cccc(NC(=O)c4cccc(Cl)c4)c3)c2)CC1	6.05
CC(C)CNCc1cccc(-c2ccc(CN(CCCN3CCN(C)CC3)C(=O)/C=C/c3ccccc3)cc2)c1	6.07
COc1cc2nc(N3CCC(CNC(=O)c4ccc(-c5ccc(C(=O)N(C)C)cc5C)cc4)CC3)nc(N3CCN(C)CC3)c2cc1OC	5.91
O=C1O[C@H](c2ccccc2)[C@H](c2ccccc2)N(C(=O)OCc2ccccc2)[C@H]1Cc1ccccc1C1CCCC1	7.22
O=c1c2ccccc2nc(C=Cc2ccc([N+](=O)[O-])cc2)n1-c1ccccn1	6.42
COc1cc2c(cc1OC)CN(CCCCc1ccc(NC(=O)c3cc(Cl)cc(Cl)c3)cc1)CC2	5.92
CNC(=O)c1cnc(Nc2ccc(N3CCN(C)CC3)cc2)nc1Nc1cccc(OC)c1	6.12
O=C(NC(Nc1ccc([N+](=O)[O-])cc1)C(Cl)(Cl)Cl)c1cccc(Cl)c1 (configuration not stated)	6.07
CCN(CCCN1CCCCC1)c1cc(C)nc(Nc2ccc(Cl)cc2C)n1	6.14
NC(N)=NC(=O)Nc1cc(Cl)c(Cl)c(C(F)(F)F)c1	6.21
O=C(NCCN1CCCC1)c1cccc(-c2ccc(-c3nc4ccc(C(F)(F)F)cc4[nH]3)cc2)c1	6.12
O=C(Nc1ccc(Cl)cc1F)NC1CCN(CCCCCNC(=O)[C@@H]2C[C@H]2c2ccc(Cl)c(Cl)c2)CC1	6.29
CC(C)Sc1nncc(-c2cnnc(SC(C)C)n2)n1	6.85
CCc1cn2c3c(cc(C(=O)N[C@@H](Cc4cccc(Cl)c4)[C@H](O)CNC4CCCCC4)cc13)N(C)S(=O)(=O)CC2	7.22
CCOc1ccc2c(NN=Cc3cccc(OC)c3)cc(C)nc2c1	6.92
Nc1nc(-c2ccccn2)nc(-n2nc(-c3cccc(C(F)(F)F)c3)cc2N)n1	5.98
Cn1c(N)c(C(=O)CSc2nnc(-c3cccs3)n2Cc2ccccc2)c(=O)n(C)c1=O	6.10
Cc1cccc2[nH]c(-c3ccc(-c4cccc(NC(=O)C(C)CN5CCN(C)CC5)c4)cc3)nc12 (configuration not stated)	6.13

Compound	pIC50
CC(C)C[C@H]1c2[nH]c3ccc(Cl)cc3c2CCN1C(=O)CCc1ccccc1	6.06
CCOc1ccc2nc(C)cc(NN=Cc3ccccc3Cl)c2c1	6.72
O=C(Nc1cccc(-c2ccc(-c3nc4ccc(C(F)(F)F)cc4[nH]3)cc2)c1)c1cccnc1	6.24
CN(c1ccc2c(c1)nc(NCc1ccc(F)cc1)n2C)c1ccnc(Nc2ccc(CS(C)(=O)=O)cc2)n1	6.08
C=CCOc1ccc2ccccc2c1CNCCCCCCNCc1c(OCC=C)ccc2ccccc12	6.07
COc1cccc(CNc2noc(-c3c(-c4ccccc4)noc3C)n2)c1OC	6.06
Cc1cc(NC(=O)NCCN2CCC(NC(=O)c3cccc(Br)c3)C2)c2ccccc2n1 (configuration not stated)	6.26
CCc1c(C)nc(-n2nc(C)cc2NC(=O)c2cccc3ccccc23)[nH]c1=O	6.17
O=C(Nc1cccc(CN2CCN(Cc3ccc(O)cc3)CC2)c1)c1cccc(C(F)(F)F)c1	5.92
O=S(=O)(c1cccc(C(F)(F)F)c1)N1CCC(CO)(Cc2cccc(C(F)(F)F)c2)CC1	6.02
Cc1cc(-c2cccc3c(C(=O)N4CCc5cc6nccc(N7CCN8CCC[C@H]8C7)c6cc54)cccc23)cc(C)n1	6.15
O=C(Nc1ccc(OC2CCN(Cc3ccc(F)cc3)C2)c(Cl)c1)c1ccccc1 (configuration not stated)	6.10
CN1CCN(c2cc3c(cc2Cl)CCN3C(=O)Cc2ccc(Cl)c(NC(=O)Nc3cccc([N+](=O)[O-])c3)c2)CC1	6.14
CC(C)NCc1ccc(-c2ccc(NS(=O)(=O)c3cccc4cccnc34)cc2)cc1	6.09
O=C(Nc1cccc(C(F)(F)F)c1)c1cccc(S(=O)(=O)NCC2CCN(CC3CCCCC3)CC2)c1	5.83
CC(C)NCc1cccc(-c2ccc(NC(=O)c3ccc(C#N)cc3)cc2)c1	6.08
COc1cc(C(C)C)ccc1N1CCN(CCCCNC(=O)c2ccc(NC(=O)c3ccc(Cl)cc3)cc2)CC1	6.24
CCOc1ccc2nc(C)cc(NN=Cc3ccccc3F)c2c1	6.13
CN(C)CCCNCc1cn(S(=O)(=O)c2ccccc2Cl)c2ccccc12	5.97
COc1cc(C)c(NC(=O)c2cccc3c(=O)c(C)c(-c4ccccc4)oc23)cc1OC	5.79
COc1cc2nc(NCC3CCN(C(=O)c4ccc(-c5ccc(C(=O)N(C)C)cc5C)cc4)CC3)nc(N)c2cc1OC	6.02
